Experimental data reported in patent US20090123389A1, “Methods for modulating Th17 cell development in the treatment and prevention of cellulite” (priority 2007, published 2009).

Experiments:
CD4+ CD25− T cells = experiment: CD4+ T cell proliferation, CD25 upregulation, cytokine production, Th1/Th2/iTreg differentiation; format: cell-based, mouse; details: for concentration causing general inhibition of T and B cell activation, proliferation and effector function: CD4+ T cells, CD8+ T cells, B220+ B cells
Description: The dose-response of HF on CD4+ T cell proliferation, activation (i.e. CD25 upregulation) and differentiation to Th1, Th2 and Th17 lineages were evaluated. Purified murine naïve CD4+ CD25− T cells were activated using anti-CD3 (0.3 μg/ml) and anti-CD28 (0.5 μg/ml) antibodies and varying amounts of HF was added to each T cell culture condition (1.25 nM-40 nM). CD4+ T cell proliferation was monitored by CFSE dilution on day 3-post activation and CD25 expression was evaluated by FACS staining 2 days after activation. For T cell differentiation experiments, naïve T cells were activated as above in the presence of Th1 (IL-12 (20 ng/ml) plus anti-IL-4 (1.5 μg/ml)), Th2 (IL-4 (50 ng/ml) plus anti-IFNγ (0.5 mg/ml)) or Th17 (TGFβ (3 ng/ml) plus IL-6 (30 ng/ml)) polarizing conditions plus titrating amounts of HF (1.25 nM-40 nM) or MAZ1310 (40 nM). The percentage of Th17 cells, (IL-17^+ IFNγ^−) was evaluated on day 3 following activation, whereas the abundance of Th1 cells (IFNγ^+ IL-4) and Th2 cells (IL-4^+ IFNγ^−) was determined 5 days following activation. All cytokine expression was determined by intracellular staining following PMA+Ionomycin+Brefeldin A re-stimulation and all data was normalized to control (MAZ1310)-treated cells. […] Biol., vol. 80:1-8 (2006).
Cytokines, antibodies and T cell culture: Purified CD4^+ CD25^− T cells were activated in vitro as previously described (I. M. Djuretic et al., Nat Immunol 8, 145 (2007)) using 0.3 μg/ml hamster anti-mouse CD3 (clone 145-2C11) (ATCC—Manassas, Va.) and 0.5 μg/ml hamster anti-mouse CD28 (BD Pharmingen, San Jose, Calif.). Activated cell cultures were differentiated using the following combinations of cytokines and antibodies: iTreg=recombinant human TGFβ1 (3 ng/ml; R&D systems, Minneapolis, Minn.), Th17=TGFβ1 (3 ng/ml) plus recombinant mouse IL-6 (30 ng/ml, R&D systems). Th1 and Th2 differentiation was performed as previously described. (I. M. Djuretic et al., Nat Immunol 8, 145 (2007)). Human IL-2 supernatant (National Cancer Institute) was used in culture at 0.01 U/ml and was added at 48 hours-post activation when T cells were split into tissue culture wells lacking CD3 and CD28 antibodies, with the exception of Th17 cultures that were maintained in the absence of IL-2. All reagents were added at the time of T cell activation and again at 48-hours post activation unless indicated otherwise. For some experiments, purified CD4^+ CD25^− T cells, CD8^+ T cells or B cells were labeled with 1 μM CFSE (Invitrogen) prior to activation in accordance with manufacturers instructions.
Detection of cytokine production: Cytokines secreted into media supernatant were measured using the mouse Th1/Th2 cytometric bead array (CBA, BD Pharmingen) in accordance with manufacturers instructions. Briefly, CD4^+ CD25^− T cells were activated in anti-CD3/anti-CD28-coated tissue culture wells and supernatants were collected at the indicated times. For detection of intracellular cytokines in murine cells, cultured T or B cells were stimulated with 10 nM PMA (Sigma) and […] (Sigma) for 4-5 hours in the presence of […] (Sigma). Stimulated cells were harvested, washed with PBS and fixed with PBS plus 4% paraformaldehyde at room temperature for 20 minutes. […]

Jurkat T cells = experiment: Apoptosis of Jurkat T cells (Annexin V / PI, flow cytometry); format: cell-based; details: 100 nM HF, cultured for 30 hours
Description: The non-specific cytoxicity of HF in both normal and transformed T-cells at high doses was evaluated. Anti-CD3/anti-CD28 activated primary T cells were harvested 6 days after activation and cultured in the presence of IL-2 with or without HF (100 nM). As a positive control, some T cells were cultured without IL-2 to induce apoptosis (FIG. 3A). Jurkat T cells, a transformed T cell leukemia line, were cultured in complete medium with or without HF (100 nM) as indicated (FIG. 3B). Both primary and Jurkat T cells were cultured for 30 hours and programmed cell death, i.e. apoptosis, was determined by Annexin V staining and propidium iodide (PI) uptake and cells were analyzed by flow cytometry. The percent of apoptotic T cells at each time point was plotted and was defined as Annexin V^+ PI^−. […] In further experiments, titrating amounts of HF were added to primary T cells and apoptosis was determine as above at the indicated time points. At 100 nM HF, but not 30 nM or lower, generalized T-cell apoptosis was observed (FIG. 3C).

## O=C(CC1NCCCC1O)Cn1cnc2cc(Br)c(Cl)cc2c1=O (racemic) [HF, 7-bromo-6-chloro-3-[3-(3-hydroxy-2-piperidinyl)-2-oxopropyl]-4(3H)-quinazolinone]
CD4+ CD25− T cells
  concentration causing general inhibition of T and B cell activation, proliferation and effector function: > 20 nM
CD4+ CD25− T cells; listed as halofuginone
  concentration causing general inhibition of T and B cell activation, proliferation and effector function: 20 to 40 nM
CD4+ CD25− T cells; low concentrations of HF (1-10 nM)
  T cell proliferation, CD25 upregulation or production of IL-2, TNF or IFNγ: did not affect
CD4+ CD25− T cells; low-dose HF
  Th1, Th2 or iTreg differentiation (IFNγ, IL-4 or Foxp3 expression): failed to modulate
Jurkat T cells
  apoptosis of Jurkat T cells: significant apoptosis
